Laboratory results from patent US5629011A, “Composition for nasal administration” (priority 1992, dated 1997).
Several values for one entry are separate records, joined by “and”; a condition that tells them apart may be missing. Identical values can stand only once.

Experiments:
in vivo = details: sheep
Experimental: (§1) The chitosan concentration was 0.5%. The solution was administered into the sheep nostril using a simple spray pump device followed by serial blood sampling. […] Control experiments were conducted using i.v. dosage of the glucuronide.
(§2) Blood samples (10 ml) were taken at the following times.
Plasma was separated by centrifugation soon after sampling and the plasma samples (approximately 5 ml) were stored at -80° C. prior to analysis.
Biomed. Appl. 230, 427. […] The limit of quantification of the method is 1 ng/ml for a 0.5 ml plasma sample and the assay is linear over the range of 1 to 1200 ng/ml drug concentration.

[1] = Pharmacokinetic parameters after intravenous administration to sheep; details: for Vd: Apparent Volume of Distibution; for AUC at 5 h: Area Under Curve; for half-life: T1/2, i.v. 0.015 mg/kg
Experimental: as §1, §2
(§3) The area under the curve (AUC) was calculated over 0-300 minutes using the linear trapezoidal method. […] Clearance was calculated by dividing the dose by the AUC, and the volume of distribution was calculated by dividing the clearance by the elimination rate constant. The bioavailability was calculated by dividing the mean AUC for nasal administration by the normalised mean AUC after intravenous administration.

[2] = Pharmacokinetic parameters after nasal administration to sheep; details: for Vd: Apparent Volume of Distribution; for AUC at 5 h: Area Under Curve; for half-life: T1/2, nasal 0.15 mg/kg with 0.5% chitosan
Experimental: as §1, §2, §3

[3] = cited from earlier work; for unwanted side effects: metabolites compared with morphine, for morphine: therapeutic use
[4] = intracerebroventricular, mice; cited from earlier work
[5] = subcutaneous injection, rat; cited from earlier work
[6] = 0.15 mg/kg, morphine-6-glucuronide concentration (plasma)
[7] = iv, 0.015 mg/kg, morphine-6-glucuronide concentration (plasma)
[8] = i.v. 0.015 mg/kg, individual sheep NF, OF, PF
[9] = nasal 0.15 mg/kg with 0.5% chitosan, individual sheep IF, JF, KF, 0.15 mg/kg

Structure (SMILES): CN1CC[C@]23c4c5ccc(O)c4O[C@H]2[C@@H](O[C@@H]2O[C@H](C(=O)O)[C@@H](O)[C@H](O)[C@H]2O)C=C[C@H]3[C@H]1C5 [morphine-6-glucuronide]
- concentration at 10 min (in vivo; [6]): 89.1 ng/mL
- concentration at 0.25 h (in vivo; [6]): 121 ng/mL
- concentration at 20 min (in vivo; [6]): 102 ng/mL
- concentration at 0.5 h (in vivo; [6]): 107 ng/mL
- concentration at 0.75 h (in vivo; [6]): 108 ng/mL
- concentration at 1 h (in vivo; [6]): 66.7 ng/mL
- concentration at 1.5 h (in vivo; [6]): 41.1 ng/mL
- concentration at 2 h (in vivo; [6]): 21.9 ng/mL
- concentration at 3 h (in vivo; [6]): 10.2 ng/mL
- concentration at 6 h (in vivo; [6]): < 1 ng/mL
- morphine-6-glucuronide concentration (plasma) (in vivo; iv, 0.015 mg/kg, 2.5 h): 3.5 ng/mL
- concentration at 2 min (in vivo; [7]): 43.8 ng/mL
- concentration at 5 min (in vivo; [7]): 40.3 ng/mL
- concentration at 10 min (in vivo; [7]): 36.1 ng/mL
- concentration at 0.25 h (in vivo; [7]): 28.6 ng/mL
- concentration at 20 min (in vivo; [7]): 23.2 ng/mL
- concentration at 0.5 h (in vivo; [7]): 22.5 ng/mL
- concentration at 1.5 h (in vivo; [7]): 9.4 ng/mL
- concentration at 3 h (in vivo; [7]): 2 ng/mL
- concentration at 4 h (in vivo; [7]): < 1 ng/mL
- concentration at 5 h (in vivo; [7]): < 1 ng/mL
- concentration at 6 h (in vivo; [7]): < 1 ng/mL
- Area Under Curve ([1]; i.v. 0.015 mg/kg, 0-300 min, individual sheep NF, OF, PF, 300 min): 3819 ng·min/mL and 2560 ng·min/mL
- Apparent Volume of Distibution [1, 8]: 0.30 lkg^-1 and 0.35 lkg^-1
- Cmax [1, 8]: 55 ng/mL and 50 ng/mL
- T1/2 [1, 8]: 53 min and 42 min
- Tmax [1, 8]: 2 min and 5 min
- clearance [1, 8]: 3.9 mL/min/kg and 5.9 mL/min/kg
- Vd ([1]; sheep, plasma, iv, 0.015 mg/kg, i.v. 0.015 mg/kg, individual sheep NF, OF, PF): 0.58 L/kg
- Vd ([1]; sheep, plasma, iv, 0.015 mg/kg, i.v. 0.015 mg/kg, mean of 3 sheep): 0.41 L/kg
- AUC at 5 h ([1]; sheep, plasma, iv, 0.015 mg/kg, i.v. 0.015 mg/kg, 0-300 min, individual sheep NF, OF, PF): 36.1 ng·h/mL
- AUC at 5 h ([1]; sheep, plasma, iv, 0.015 mg/kg, i.v. 0.015 mg/kg, 0-300 min, mean of 3 sheep): 47.5 ng·h/mL
- clearance ([1]; sheep, plasma, iv, 0.015 mg/kg, Clearance, i.v. 0.015 mg/kg, individual sheep NF, OF, PF): 6.9 mL/min/kg
- clearance ([1]; sheep, plasma, iv, 0.015 mg/kg, Clearance, i.v. 0.015 mg/kg, mean of 3 sheep): 5.6 mL/min/kg
- Cmax ([1]; sheep, plasma, iv, 0.015 mg/kg, Cmax, i.v. 0.015 mg/kg, individual sheep NF, OF, PF): 44 ng/mL
- Cmax ([1]; sheep, plasma, iv, 0.015 mg/kg, Cmax, i.v. 0.015 mg/kg, mean of 3 sheep): 50 ng/mL
- half-life ([1]; sheep, plasma, iv, 0.015 mg/kg, individual sheep NF, OF, PF): 58 min
- half-life ([1]; sheep, plasma, iv, 0.015 mg/kg, mean of 3 sheep): 51 min
- Tmax ([1]; sheep, plasma, iv, 0.015 mg/kg, Tmax, i.v. 0.015 mg/kg, mean of 3 sheep): 3 min
- bioavailability ([2]; nasal 0.15 mg/kg with 0.5% chitosan, vs normalised mean i.v. AUC, individual sheep IF, JF, KF, 0.15 mg/kg): 37.3% and 26.6%
- Area Under Curve ([2]; nasal 0.15 mg/kg with 0.5% chitosan, 0-300 min, individual sheep IF, JF, KF, 0.15 mg/kg, 300 min): 10631 ng·min/mL and 7581 ng·min/mL
- Apparent Volume of Distribution ([2]; nasal 0.15 mg/kg with 0.5% chitosan, corrected for bioavailable dose, individual sheep IF, JF, KF, 0.15 mg/kg): 0.31 lkg^-1
- clearance ([2]; nasal 0.15 mg/kg with 0.5% chitosan, corrected for bioavailable dose, mean of 3 sheep): 5.3 mL/min/kg
- Cmax [2, 9]: 165 ng/mL and 110 ng/mL
- T1/2 [2, 9]: 41 min and 42 min
- Tmax [2, 9]: 10 min
- clearance ([2]; sheep, plasma, 0.15 mg/kg): 5.3 mL/min/kg
- Vd ([2]; sheep, plasma, 0.15 mg/kg, nasal 0.15 mg/kg with 0.5% chitosan, corrected for bioavailable dose, individual sheep IF, JF, KF): 0.37 L/kg
- Vd ([2]; sheep, plasma, 0.15 mg/kg, nasal 0.15 mg/kg with 0.5% chitosan, corrected for bioavailable dose, mean of 3 sheep): 0.33 L/kg
- AUC at 5 h ([2]; sheep, plasma, 0.15 mg/kg, nasal 0.15 mg/kg with 0.5% chitosan, 0-300 min, individual sheep IF, JF, KF): 156 ng·h/mL
- AUC at 5 h ([2]; sheep, plasma, 0.15 mg/kg, nasal 0.15 mg/kg with 0.5% chitosan, 0-300 min, mean of 3 sheep): 153 ng·h/mL
- bioavailability ([2]; sheep, plasma, 0.15 mg/kg, Bioavailability, nasal 0.15 mg/kg with 0.5% chitosan, vs normalised mean i.v. AUC, individual sheep IF, JF, KF): 32.9%
- Cmax ([2]; sheep, plasma, 0.15 mg/kg, Cmax, nasal 0.15 mg/kg with 0.5% chitosan, individual sheep IF, JF, KF): 121 ng/mL
- Cmax ([2]; sheep, plasma, 0.15 mg/kg, Cmax, nasal 0.15 mg/kg with 0.5% chitosan, mean of 3 sheep): 132 ng/mL
- half-life ([2]; sheep, plasma, 0.15 mg/kg, individual sheep IF, JF, KF): 51 min
- half-life ([2]; sheep, plasma, 0.15 mg/kg, mean of 3 sheep): 45 min
- Tmax ([2]; sheep, plasma, 0.15 mg/kg, Tmax, nasal 0.15 mg/kg with 0.5% chitosan, individual sheep IF, JF, KF): 15 min
- Tmax ([2]; sheep, plasma, 0.15 mg/kg, Tmax, nasal 0.15 mg/kg with 0.5% chitosan, mean of 3 sheep): 13 min
- bioavailability ([2]; sheep, plasma, 0.15 mg/kg, mean nasal bioavailability, nasal 0.15 mg/kg with 0.5% chitosan, vs i.v. AUC normalised to 0.15 mg/kg, mean, n=3): 32.3%
- biological half-life compared with morphine [3]: may also have a longer biological half-life
- unwanted side effects [3]: less likely to have the unwanted side effects

Structure (SMILES): CN1CC[C@]23c4c5ccc(O)c4O[C@H]2[C@@H](OS(=O)(=O)O)C=C[C@H]3[C@H]1C5 [morphine-6-sulphate]
- analgesic potency compared with morphine [4]: more potent analgesic than morphine
- antinociceptive activity [5]: potent antinociceptive activity
- unwanted side effects [3]: less likely to have the unwanted side effects
